Details of series [1]: method as in PMID 30072500. The following applies: patients, preliminary dosimetry study; cited from earlier work.
Series [2] in a line: LogD7.4 measurement (n-octanol / phosphate buffer pH 7.4). The class given is physicochemical. To be noted: n-octanol / 0.1 M phosphate buffer pH 7.4, n = 3. Here is the method: Briefly, ^68Ga-labeled tracers (1.11–1.48 MBq) were aliquoted into vials containing 3 mL of n-octanol and 3 mL of 0.1 M phosphate buffer (pH 7.4) in triplicate. Each vial was then vortexed (1 min) and centrifuged (5000 RPM, 10 min). The n-octanol and aqueous layers were sampled (1 mL) and counted using an automated gamma counter and the LogD7.4 value was calculated using the following equation: LogD7.4=log10counts in n-octanol phase/counts in buffer phase

For series [3], the system named is HEK293T:hFAP tumor-bearing mice. Briefly: Ex vivo biodistribution in HEK293T:hFAP tumor xenograft mouse model. The following applies: HEK293T:hFAP tumor-bearing mice, 1 h pi, unblocked. As for the experimental part: Imaging and biodistribution studies were performed using immunodeficient male NRG (NOD.Cg-Rag1tm1Mom Il2rgtm1Wjl/SzJ) mice. All experiments were conducted according to the guidelines established by the Canadian Council on Animal Care and approved by Animal Ethics Committee of the University of British Columbia. The mice were subcutaneously inoculated with 7.5 × 10^6 HEK293T:hFAP cells in the left dorsal flank. When the tumors grew to 6–8 mm in diameter, the mice were used for PET/CT imaging and biodistribution studies.
For biodistribution studies, the mice were injected with ~1–2 MBq (0.01–0.04 nmol) of the ^68Ga-labeled tracer, using the exact procedures described above. At 1 h post injection, the mice were euthanized by CO2 inhalation. Blood was withdrawn by cardiac puncture and organs/tissues of interest were collected, weighed, and counted using a Perkin Elmer (Waltham, MA, USA) Wizard2 2480 automatic gamma counter. The percent injected dose per gram of tissues (%ID/g) for different tracers was calculated.
For blocking studies, HEK293T:hFAP tumor-bearing mice were co-injected with [^68Ga]Ga-SB03045 and excess nonradioactive Ga-FAPI-04 (0.5 mg/mouse) as a competitor. Imaging and biodistribution were performed at 1 h pi, similar to the process for the unblocked mice.

As for `N#C[C@@H]1CC(F)(F)CN1C(=O)CNC(=O)c1ccnc2ccc(OCCCN3CCN(C(=O)CN4CCN5CCN(CC(=O)O)CCN(CC4)CC(=O)[O][68Ga+][O]C(=O)C5)CC3)cc12` [[^68Ga]Ga-FAPI-04, reference compound], the “Drop of tumor uptake from 1 to 3 h post-injection” value in series [1] is on record as 25%. Also, the LogD7.4 in series [2] is given as −1.92 ± 0.35. In series [3], the “Adrenal Glands uptake” value was 1.31 ± 0.60 %ID/g, the Blood uptake worked out at 1.20 ± 0.30 %ID/g, the Bone uptake came to 3.79 ± 1.36 %ID/g and the Brain uptake was 0.05 ± 0.01 %ID/g. In series [3], the Fat uptake turned out to be 0.14 ± 0.06 %ID/g, the Heart uptake came to 0.37 ± 0.08 %ID/g, the Kidneys uptake came to 1.88 ± 0.18 %ID/g and the Liver uptake is listed as 0.40 ± 0.07 %ID/g. In series [3], the Lungs uptake was 0.80 ± 0.16 %ID/g, the Muscle uptake is reported as 0.76 ± 0.20 %ID/g, the Pancreas uptake was found to be 0.44 ± 0.16 %ID/g and the “Small Intestines uptake” value is 0.37 ± 0.07 %ID/g. In series [3], the Spleen uptake came out at 0.60 ± 0.14 %ID/g, the Stomach uptake was determined as 0.16 ± 0.19 %ID/g, the Testes uptake is recorded as 0.28 ± 0.04 %ID/g and the Tumor/Blood uptake ratio was 10.5 ± 3.25. Besides, in series [3], the Tumor/Bone uptake ratio came to 3.49 ± 1.41, the Tumor/Kidney uptake ratio is given as 6.41 ± 1.52 and the Tumor/Muscle uptake ratio was 16.8 ± 5.73.

The record behind these values is PMC10145249, “Synthesis and Evaluation of ^68Ga-Labeled (2S,4S)-4-Fluoropyrrolidine-2-Carbonitrile and (4R)-Thiazolidine-4-Carbonitrile Derivatives as Novel Fibroblast Activation Protein-Targeted PET Tracers for Cancer Imaging” (Molecules, 2023).
